One assay addresses T1, Aminopeptidase N (Plasmodium falciparum FcB1/Columbia, UniProt O96935).
T1 sequence (O96935 whole entry): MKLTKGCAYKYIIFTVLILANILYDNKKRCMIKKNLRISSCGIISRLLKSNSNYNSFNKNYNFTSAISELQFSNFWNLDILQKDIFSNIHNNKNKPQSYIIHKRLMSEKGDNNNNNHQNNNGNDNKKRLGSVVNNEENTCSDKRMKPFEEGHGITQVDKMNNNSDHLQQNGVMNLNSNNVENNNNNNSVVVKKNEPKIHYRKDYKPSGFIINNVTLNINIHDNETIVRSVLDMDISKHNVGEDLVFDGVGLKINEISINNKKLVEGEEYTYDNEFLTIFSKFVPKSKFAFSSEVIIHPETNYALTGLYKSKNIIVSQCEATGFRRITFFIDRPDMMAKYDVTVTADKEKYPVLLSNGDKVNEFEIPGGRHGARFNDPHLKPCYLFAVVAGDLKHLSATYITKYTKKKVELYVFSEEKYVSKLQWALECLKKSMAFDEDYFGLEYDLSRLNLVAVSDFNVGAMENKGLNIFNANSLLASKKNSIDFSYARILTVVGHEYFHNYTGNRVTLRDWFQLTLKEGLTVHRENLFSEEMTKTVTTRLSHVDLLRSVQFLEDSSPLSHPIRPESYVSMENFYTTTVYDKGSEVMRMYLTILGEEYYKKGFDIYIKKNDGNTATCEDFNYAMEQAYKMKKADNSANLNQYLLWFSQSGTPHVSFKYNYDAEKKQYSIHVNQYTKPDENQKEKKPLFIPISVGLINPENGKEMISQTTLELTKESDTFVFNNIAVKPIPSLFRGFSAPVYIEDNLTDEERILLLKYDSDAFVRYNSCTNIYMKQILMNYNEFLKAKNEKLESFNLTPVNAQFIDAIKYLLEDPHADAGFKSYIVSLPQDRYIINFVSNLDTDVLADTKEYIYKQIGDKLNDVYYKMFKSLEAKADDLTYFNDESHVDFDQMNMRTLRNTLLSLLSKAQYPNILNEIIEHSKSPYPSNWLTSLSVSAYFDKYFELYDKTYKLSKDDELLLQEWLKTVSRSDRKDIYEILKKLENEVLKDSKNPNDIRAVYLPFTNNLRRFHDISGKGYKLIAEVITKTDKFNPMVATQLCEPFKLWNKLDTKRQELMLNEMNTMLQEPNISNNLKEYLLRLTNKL
In words: P. falciparum M1AAP inhibitors, biochemical, fluorogenic H-Leu-NHMec substrate, 1536-well (AID 1445). Set-up: species or system Plasmodium falciparum 3D7, 3D7.

The target of assay [1] is Heat shock 70 kDa protein 1A (Homo sapiens, UniProt P0DMV8). Nature of the assay: Hsp70 inhibitors, SAR follow-up, biochemical, fluorescence polarization (AID 1072).
Assay [2] addresses T2, Sentrin-specific protease 6 (Homo sapiens, UniProt Q9GZR1).
T2 sequence (Q9GZR1 whole entry): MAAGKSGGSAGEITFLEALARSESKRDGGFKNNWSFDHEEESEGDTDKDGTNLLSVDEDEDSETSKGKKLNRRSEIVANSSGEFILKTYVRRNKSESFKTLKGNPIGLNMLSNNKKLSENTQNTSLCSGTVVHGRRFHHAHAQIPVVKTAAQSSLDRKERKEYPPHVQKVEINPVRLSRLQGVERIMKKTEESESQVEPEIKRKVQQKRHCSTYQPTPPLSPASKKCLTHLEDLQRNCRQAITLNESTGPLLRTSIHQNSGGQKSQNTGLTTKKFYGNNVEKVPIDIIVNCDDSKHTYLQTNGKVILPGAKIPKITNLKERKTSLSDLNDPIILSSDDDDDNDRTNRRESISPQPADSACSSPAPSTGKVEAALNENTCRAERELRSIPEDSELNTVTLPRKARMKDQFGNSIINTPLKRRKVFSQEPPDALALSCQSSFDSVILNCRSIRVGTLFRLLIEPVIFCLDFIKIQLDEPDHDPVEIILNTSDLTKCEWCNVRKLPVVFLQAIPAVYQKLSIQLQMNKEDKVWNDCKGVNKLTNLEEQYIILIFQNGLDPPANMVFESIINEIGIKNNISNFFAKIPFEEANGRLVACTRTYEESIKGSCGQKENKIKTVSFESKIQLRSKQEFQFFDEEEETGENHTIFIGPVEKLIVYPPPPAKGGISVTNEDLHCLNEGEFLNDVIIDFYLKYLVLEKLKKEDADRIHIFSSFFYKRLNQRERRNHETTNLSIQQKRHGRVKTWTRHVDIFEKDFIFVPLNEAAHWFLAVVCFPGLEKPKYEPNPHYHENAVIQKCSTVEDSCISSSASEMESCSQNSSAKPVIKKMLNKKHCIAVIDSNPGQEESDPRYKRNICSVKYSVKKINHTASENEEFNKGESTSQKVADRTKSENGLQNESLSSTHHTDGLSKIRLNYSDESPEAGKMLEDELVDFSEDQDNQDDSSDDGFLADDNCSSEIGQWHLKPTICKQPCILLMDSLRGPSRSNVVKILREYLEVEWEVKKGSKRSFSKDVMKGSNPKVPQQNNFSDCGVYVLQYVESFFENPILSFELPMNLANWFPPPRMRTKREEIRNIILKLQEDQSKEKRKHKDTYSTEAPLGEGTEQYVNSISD
In words: SAR Analysis of small molecule inhibitors of Sentrin-specific protease 6 (SENP6) using a Luminescent assay. [Related pubchem assays (depositor defined):AID2582, AID2599]. The class given is functional.

Assay [3] has as its target Protein kinase C iota type (Homo sapiens, UniProt P41743). It is filed as functional.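 Note: measured within a kinome-wide kinase panel, PRKCI as panel member.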

The source made the active and inactive calls.

Sequence of Protein kinase C iota type (P41743 whole entry): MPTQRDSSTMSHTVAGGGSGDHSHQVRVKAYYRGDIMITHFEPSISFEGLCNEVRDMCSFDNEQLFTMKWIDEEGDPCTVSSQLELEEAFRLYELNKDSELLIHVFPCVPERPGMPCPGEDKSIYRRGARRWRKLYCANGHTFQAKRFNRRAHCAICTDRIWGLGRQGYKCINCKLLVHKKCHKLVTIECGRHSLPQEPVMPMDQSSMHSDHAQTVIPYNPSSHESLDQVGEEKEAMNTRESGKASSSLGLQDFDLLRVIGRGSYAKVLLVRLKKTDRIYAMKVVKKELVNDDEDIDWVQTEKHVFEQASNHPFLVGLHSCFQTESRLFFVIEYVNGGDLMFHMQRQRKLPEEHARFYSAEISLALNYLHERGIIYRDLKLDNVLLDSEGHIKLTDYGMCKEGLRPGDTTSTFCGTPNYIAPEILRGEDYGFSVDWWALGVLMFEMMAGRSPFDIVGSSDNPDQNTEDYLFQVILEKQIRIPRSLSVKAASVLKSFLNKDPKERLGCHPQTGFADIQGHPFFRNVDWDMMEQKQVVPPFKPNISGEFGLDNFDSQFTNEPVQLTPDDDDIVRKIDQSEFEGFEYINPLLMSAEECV
Sequence of Heat shock 70 kDa protein 1A (P0DMV8 whole entry): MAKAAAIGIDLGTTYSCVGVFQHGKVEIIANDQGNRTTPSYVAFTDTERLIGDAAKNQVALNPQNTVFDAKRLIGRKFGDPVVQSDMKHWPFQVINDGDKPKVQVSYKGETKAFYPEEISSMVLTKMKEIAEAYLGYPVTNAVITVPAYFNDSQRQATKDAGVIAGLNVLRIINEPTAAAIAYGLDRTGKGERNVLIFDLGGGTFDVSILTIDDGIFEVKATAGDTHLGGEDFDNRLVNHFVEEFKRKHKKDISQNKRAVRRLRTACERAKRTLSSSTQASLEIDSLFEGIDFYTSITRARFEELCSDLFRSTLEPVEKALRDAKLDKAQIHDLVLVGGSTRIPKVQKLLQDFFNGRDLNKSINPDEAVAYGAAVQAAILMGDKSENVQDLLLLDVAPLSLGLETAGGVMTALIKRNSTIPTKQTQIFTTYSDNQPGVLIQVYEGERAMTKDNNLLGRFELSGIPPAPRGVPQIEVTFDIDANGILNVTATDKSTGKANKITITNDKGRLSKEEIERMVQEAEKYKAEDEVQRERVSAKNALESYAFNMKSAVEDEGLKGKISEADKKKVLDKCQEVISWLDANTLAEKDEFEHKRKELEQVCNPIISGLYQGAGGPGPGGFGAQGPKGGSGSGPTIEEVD

Consider `O=C1N=C(NS(=O)(=O)Cc2ccccc2)S/C1=C1\C(=O)Nc2ccccc21`, for which the IC50 (usually the concentration needed to halve the response being measured) on Aminopeptidase N was 17.4 µM (active).

`O=C(O)C1Nc2c(O)cc(Cl)c([N+](=O)[O-])c2C2C=CCC12` (centres undefined): the IC50 in assay [1] is 22.4 µM (active).

`O=C(CCc1ccccc1)NNc1cc(N2CCCCC2)nc(N2CCCCC2)n1`: in assay [2], the IC50 was 35.7 µM (active).

In the case of `Cc1n[nH]c2ccc(-c3cncc(OCC(N)Cc4cccc(Cl)c4)c3)cc12` (centres undefined), the Ki (commonly a measure of affinity in units of concentration, obtained from inhibition or displacement) in assay [3] was 1 µM (active).

The values are drawn from ChEMBL document CHEMBL1201862, “PubChem BioAssay data set” (2004).
